Data set [1] has as its system seizures in children and young adults with Dravet Syndrome and Lennox-Gastaut Syndrome. Put plainly: Example 1: primary seizure count during baseline and by cumulative day in the treatment period, CBD vs placebo added to baseline AED regimen. The class given is in vivo, human. As to conditions: for Ratio to Baseline (number of seizures with treatment to number of seizures at baseline): 5 mg/kg/day starting dose, negative binomial regression of primary seizure count; for percent change in number of seizures compared to baseline: 5 mg/kg/day, positive = decrease in seizures. As for the experimental part:
Children and young adults with Dravet Syndrome Lennox-Gastaut Syndrome were administered a highly purified extract of cannabidiol (CBD) obtained from a cannabis plant or placebo.
The highly purified CBD extract (greater than 98% CBD w/w) was administered in a formulation described herein at a starting dose of 5 mg/kg/day in addition to their baseline anti-epileptic drug (AED) regimen.
The starting dose increase from 5 mg/kg/day to 10 mg/kg/day after one week of administering the first dose of CBD. […] The titration period occurred over two weeks. The starting dose was expected to minimize side effects, and not intended to achieve efficacy.
All patients were taking at least two concomitant anti-epileptic drugs. These included clobazam; levetiracetam; topiramate; stiripentol; phenobarbital; lacsamide; valproic acid; zonisamide.
(§1) Prior to treatment with CBD, patients recorded the number of seizures they experienced. This established the baseline levels. During the course of treatment, patients recorded the number of seizures experienced each day.
The ratio in Table 9 is defined as the number of seizures with treatment to the number of seizures at baseline (e.g., before treatment). The percentage defines the percent change in number of seizures compared to baseline. Positive percentages reflect a decrease in the number of seizures compared to baseline, and negative percentages reflect an increase in number of seizures compared to baseline. The ratio to baseline of patients administered CBD extract includes data from patients treated with a maximum of 10 mg/kg/day or 20 mg/kg/day CBD extract. However, the amount of CBD administered to each treatment arm (10 mg/kg/day and 20 mg/kg/day) over the first 7 days of the study is the same.

For data set [2], the system named is seizures in patients with Tuberous Sclerosis Complex (TSC). Put plainly: Example 2: mean total seizures over time of TSC patients after administration of CBD (FIG. 2). The class given is in vivo, human. The protocol: Patients with TSC were administered a highly purified extract of cannabidiol (CBD) obtained from a cannabis plant described herein. Similar to Example 1, patients with a TSC diagnosis were administered a starting dose of 5 mg/kg/day CBD in addition to their baseline anti-epileptic drug (AED) regimen or placebo.
The daily dose was increased by 5 mg/kg increments until intolerance occurred or a maximum dose of 25 mg/kg/day was achieved. The starting dose increase from 5 mg/kg/day to 10 mg/kg/day occurred 7 days after administration of the first dose of CBD. […] The titration period occurred over two weeks. For patients in need of further seizure reduction, the dosage of 20 mg/kg/day was increased up to 25 mg/kg/day after one week.
All patients were taking at least two concomitant anti-epileptic drugs. These included clobazam; levetiracetam; topiramate; stiripentol; phenobarbital; lacsamide; valproic acid; zonisamide. The average number of concomitant antiepileptic drugs being taken was 2.7. The majority took either clobazam and/or valproic acid.
as §1

Data set [3] can be described thus: Solubility of the drug substance in water. The class given is physicochemical.

Bounds are passed on as bounds.

Take `C=C(C)[C@@H]1CCC(C)=C[C@H]1c1c(O)cc(CCCCC)cc1O` [CBD, Cannabidiol]: the “Ratio to Baseline (number of seizures with treatment to number of seizures at baseline)” value in data set [1] (Day 1) was 0.958; in data set [1] (First 2 Days), 0.907; in data set [1] (First 3 Days) it was 0.882; in data set [1] (First 4 Days) it was 0.831; in data set [1] (First 5 Days), 0.793; in data set [1] (First 6 Days), 0.742. In addition, the “Ratio to Baseline (number of seizures with treatment to number of seizures at baseline)” value in data set [1] (First 7 Days) is on record as 0.717. Further, the “percent change in number of seizures compared to baseline” value in data set [1] (Day 1) is “[4.2%]”; in data set [1] (First 2 Days), “[9.3%]”; in data set [1] (First 3 Days), “[11.8%]”; in data set [1] (First 4 Days), “[16.9%]”; in data set [1] (First 5 Days), “[20.7%]”; in data set [1] (First 6 Days), “[25.8%]”. Moreover, the “percent change in number of seizures compared to baseline” value in data set [1] (First 7 Days) was “[28.3%]”. Moreover, the “onset of seizure reduction” value in data set [1] (Dravet/Lennox-Gastaut patients, starting dose 5 mg/kg/day) is recorded as “within one week”; in data set [2] (starting dose 5 mg/kg/day), “within one week”. Besides, the “reduction in seizures compared to baseline” value in data set [1] (after 4 days of treatment) and in data set [2] (after 4 days of treatment) was “significant reduction in seizures” each time. Moreover, in data set [1] (from within 4 days of treatment, 5 mg/kg/day CBD), the reduction of seizures is greater than 15%. Further, the “time to seizure reduction after administration of starting dose” value in data set [1] (starting dose 5 mg/kg/day) and in data set [2] (starting dose 5 mg/kg/day) was no more than 4 days throughout. Also, in data set [2] (titration period, starting dose 5 mg/kg/day), the “mean total seizures over time (FIG. 2)” value is reported as “starts decreasing during the titration period”. The solubility in water result in data set [3] is “insoluble in water”.

Source of the values: patent US20220087951A1, “USE OF CANNABINOIDS IN THE TREATMENT OF EPILEPSY” (GW RESEARCH LIMITED, priority 2020, published 2022).
